Data on two compounds can be found in US8673884B2 (priority 2008, dated 2014).

In data set [1] the test system is Avian influenza H5N1 virus, A/Vietnam/1203/04. In kind it is cell-based.
The subject of data set [2] is human influenza H1N1 virus, A/HK/54/98. Type of data set: cell-based.
Another data set concerns H5N1 virus. In kind it is cell-based, influenza A H5N1 virus.
The subject of the next data set is H1N1 virus. In kind it is cell-based, influenza A H1N1 virus.
The target in the next data set is T1, dihydrofolic reductase (Homo sapiens, UniProt P00374).
T1 sequence (P00374 1-187): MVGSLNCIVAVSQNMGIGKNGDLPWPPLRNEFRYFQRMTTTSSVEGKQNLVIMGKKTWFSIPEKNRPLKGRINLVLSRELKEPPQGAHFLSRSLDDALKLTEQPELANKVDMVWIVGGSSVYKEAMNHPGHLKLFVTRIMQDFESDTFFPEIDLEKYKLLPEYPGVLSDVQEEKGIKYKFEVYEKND
Conditions: Baker and Jordaan, J. Med. Chem. 1965; cited from earlier work.

Data set [3] relates to Primary human blood macrophages. The experiment in a line: Cell viability test (MTT). Conditions: 100 uM.
The test system of another data set is MDCK cells. Kind of data set: Cell viability test (MTT). Conditions: 100 uM.

Take `Cc1nc(N)nc(O)c1CCCNc1ccc(/C=C/C(=O)CCl)cc1` [NSC#89853, 4-(4-((3-(2-amino-4-hydroxy-6-methyl-5-pyrimidinyl)propyl)amino)phenyl)-1-chloro-3-buten-2-one]: the “inhibition of replication of H5N1 virus (in words)” value in data set [1] is “inhibits the replication”. For the same compound, the “inhibition of replication of H1N1 virus (in words)” value in data set [2] is reported as “inhibits the replication”. For the same compound, the “level of H5N1 viruses on the surface of MDCK cells” value with H5N1 virus is “lower”. Further, the “level of H1N1 viruses on the surface of MDCK cells” value with H1N1 virus was “lower”. On dihydrofolic reductase, the “inhibition of dihydrofolic reductase” value is “inhibitor”. The “degree of cytotoxicity (MTT, OD560-OD670 of sample / DMSO)” value in data set [3] (72 hours, primary human blood macrophages, relative to DMSO) is 1.1; in the data set with MDCK cells (72 hours, relative to DMSO), 2.2. Moreover, the “cytotoxicity (in words)” value in data set [3] (primary macrophages, compared with DMSO) is on record as “does not display cytotoxicity”; in the data set on MDCK cells (compared with DMSO), “does not display cytotoxicity”.

In the case of `CCOC(=O)C1=C[C@@H](OC(CC)CC)[C@H](NC(C)=O)[C@@H](N)C1` [oseltamivir, reference compound], the H5N1 virus titer in data set [1] was 2.46 × 10^6 TCID50/ml. The “level of H5N1 viruses on the surface of MDCK cells” value in the data set with H5N1 virus was “lower”. Also, the “level of H1N1 viruses on the surface of MDCK cells” value with H1N1 virus was “lower”.
